Columns and labels:
[1] = 77° K in hydrophobic solvents and 193° K in glycerol; cited from earlier work
[2] = test system: mAb 19G2; assay: Binding of stilbene-tethered C-nucleosides to blue-fluorescent mAb 19G2 (fluorescence, crystal soak); set-up: species or system mice; settings: for emission of mAb 19G2 crystal after soaking: crystal soaked with ligand, UV lamp
Description: Each C-nucleoside was tested for the ability to bind to the blue-fluorescent monoclonal antibody (mAb) 19G2. […] Subsequently, we acquired X-ray crystallographic data on both complexes primarily to obtain information regarding positioning of the nucleobase moiety with regard to the protein framework. The structures of the 19G2-9 and 19G2-18 complexes were determined to a resolution of 2.45 Å and 2.20 Å, respectively (Table 4). In both cases, the antibody structures differ by an RMSD of 0.61 Å and 0.50 Å from that of the previously determined 19G2-12 complex. The stilbene portion of both 9 and 18 is clear in 2σ density and could be readily modeled into the density as the trans-isomer. For both complexes, binding site amino acid residues within 5 Å of the stilbene are observed to be in the same conformation as in 19G2-12.
X-ray crystallography. Crystals of mAb 19G2 were soaked overnight with a 0.25 mM solution of either 9 or 18 (DMF stock solutions) in mother liquor from the crystal growth (12% polyethylene glycol, 0.1 M sodium acetate pH 4.75, 0.3 M magnesium chloride) containing 5% DMF. Formation of the complex in the crystal was assayed by the appearance of blue fluorescence from soaked crystals when illuminated by a hand-held UV lamp at 312 nm (Spectronics Corp.; Westbury, N.Y.). The crystals were soaked in a cryobuffer consisting of 20% glycerol, 0.25 mM 9 or 18, mother liquor, and 5% DMF and flash frozen in liquid nitrogen. X-ray diffraction was collected in-house with an FRD X-ray generator and a RAXISIVF^++ detector. Data was processed and scaled using HKL software package. The previously determined structure of the antibody (PDB ID CODE 1FL3) was used as a starting model for refinement. Multiple rounds of rigid body refinement, B-factor refinement, Powell minimization, simulated annealing in CNS and manual rebuilding in O were performed.

[3] = Steady-state UV absorption, fluorescence excitation and emission spectra, quantum yield; type: physicochemical
Description: (A) UV absorption. (B) Fluorescence excitation. Note: The 19G2-2 complex and free 2 each required a separate y-axis scale for side-by-side comparison of peak shapes. (C) Fluorescence emission. See note for (B). In all cases, see Table 2 for experimental conditions. Steady-state excitation and emission spectra were recorded using an SLM 8100 spectrofluorimeter (Spectronics Instruments) with a bandpass of 4 nm for excitation and emission.

[4] = Picosecond time-resolved emission, time-correlated single photon counting; type: physicochemical
Description: Measurements were obtained with picosecond excitation at 318 nm. Decays were measured at 380 nm (free 2, 16H10 and 25E5 complexes) or 410 nm (19G2 complex) by time-correlated single photon counting. Decays were recorded in 4096 channels with a time increment of 18 ps/channel and were normalized relative to the number of counts recorded in the peak channel. See Table 3 for experimental conditions.
Normalized time-resolved emission profiles of the 20F2-2 complex were recorded at 370 nm (purple) and 480 nm (blue). The solid lines are multiexponential fits to each decay. […] Decays were recorded in 4096 channels with a time increment of 4.9 ps/channel and were normalized relative to the number of counts recorded in the peak channel. See Table 3 for experimental conditions.
Dynamic spectroscopy. Picosecond time-resolved emission spectroscopy was used to further probe the dynamics of blue-fluorescent antibodies. Time-resolved emission decay profiles of free 2 and bound to EP2 mAbs were measured at room temperature by time-correlated single-photon counting (Table 3, FIG. 16).

[5] = 20 μM mAb, 10 μM of 2 (or free stilbene), PBS pH 7.4, 5% DMF, 20° C
[6] = 20 μM mAb, 10 μM of 2 (or free stilbene), PBS, 5% DMF, 20° C

For `C(=C\c1ccccc1)/c1ccccc1` [compound 1, trans-stilbene], the φf [1] is given as 0.75.
With `O=C(O)CCCC(=O)Nc1ccc(/C=C/c2ccccc2)cc1` [compound 2, 5-oxo-5-[[4-[(1E)-2-phenylethenyl]phenyl]amino]-pentanoic acid] the “quantum yield (φf) of complex with mAb 19G2” value (from here on “quantum yield (φf) of complex”) [2] was about 0.80, the λem [3, 5] was 388 nm and the λex [3, 5] was 325 nm. The εmax [3, 6] was 33200 M⁻¹ cm⁻¹, the “φf lower than blue-fluorescent antibody complexes” value ([3]; free 2 in fluid solution) was 30-40 fold and the “φf (fluorescence quantum yield)” value ([3]; reference quinine bisulfate, 20 μM mAb, 10 μM of 2, PBS, 5% DMF, 20° C, accurate to ±10%) was 0.02. For the same compound, the UV absorption bands ([3]; values in parentheses are shoulders/inflections, 20 μM mAb, 10 μM of 2, PBS, 5% DMF, 20° C) was 320 nm, the “fluorescence decay components, τf” value ([4]; 20 μM mAb, 10 μM of 2 (or free 2), PBS, 5% DMF, 20° C) was 0.071 ns and the “kr (radiative rate constant)” value ([4]; calculated as the inverse of τr) was 0.28 ns^−1. The “τr (radiative lifetime)” value ([4]; calculated from τf and φf) was 3.6 ns, the “knr (nonradiative rate constant)” value ([4]; calculated knr = [kr(1-φf)/φf]) was 14 ns^−1 and the fluorescence lifetime ([4]; free in aqueous buffer, room temperature) was about 70 ps.
With `O=C(CCCC(=O)Nc1ccc(/C=C/c2ccccc2)cc1)NCCc1ccc(C2C[C@H](O)[C@@H](CO)O2)cc1` (stereo partly drawn) [compound 9, N-[2-[4-[2-deoxy-D-erythro-pentofuranosyl]phenyl]ethyl]-N′-[4-[(1E)-2-phenylethenyl]phenyl]-pentanediamide, reference compound] the “quantum yield (φf) of complex” value [2] was “comparable”, the “emission of mAb 19G2 crystal after soaking” value [2] was “blue emission” and the λem [3, 5] was 442 nm. For the same compound, the εmax [3, 6] was 30000 M⁻¹ cm⁻¹.
With `OCC1OC(c2ccc(COCCOCCOCc3ccc(C=Cc4ccccc4)cc3)cc2)CC1O` [compound 18, 1,4-anhydro-2-deoxy-1-C-[4-[[2-[2-[[4-[(1E)-2-phenylethenyl]phenyl]methoxy]ethoxy]ethoxy]methyl]]phenyl]-D-erythro-pentitol] the “quantum yield (φf) of complex” value [2] was “comparable” and the “emission of mAb 19G2 crystal after soaking” value [2] was “blue emission”.
